Test results: patent US20060002887A1, “Ionene oligomers and polymers” (Genzyme Corporation, priority 2002, published 2006)
≈ marks a conversion by molar mass, not a printed value.

Key:
[1] = system: A-549 lung epithelial cell line; assay: Alamar Blue in vitro cytotoxicity; assay type: cell-based
Description: The oligomers were screened for in vitro cytotoxicity following 18-24 hr exposure using the metabolic indicator Alamar Blue™ (Alamar Biosciences, Sacramento, Calif.) against the A-549 lung epithelial cell line according to the manufacturer's instructions. Briefly, flat-bottom polystyrene microtiter plates were seeded with 2×10^4 cells in Ham's F-12 medium (Invitrogen) containing 10% fetal bovine serum (FBS) and were incubated ˜48 hr at 37° C., until cells were confluent. Medium was then aspirated off and replaced with medium lacking FBS. The oligomers were added to the first row (final concentration 5 mg/ml) and serial 2-fold dilutions were prepared across the plate. Plates were incubated 18-24 hr at 37° C.; medium containing test compounds was aspirated off, wells were washed once with PBS and fresh medium (lacking FBS and phenol red) was added. Alamar Blue™ was added (final concentration 30%); cells were incubated 4 hr and absorbance was read at 570 nm. The IC50 was then calculated.
(§1) Poly(trimethylene dipyridine-alt-5-oxanonane) having a molecular weight 0.5-1 kDa was tested in A-549 lung epithelial cells to determine its IC50 value in comparison with tobramycin, a conventional antibiotic. In addition, the minimum inhibitory concentrations for the two compounds were determined in vitro for a number of bacterial strains and species. The results are as shown below, where all concentrations are expressed as μg/mL: […]

Burkholderia cepacia = assay: MIC broth dilution assay; assay type: cell-based; details: B. cepacia, read-out: minimum inhibitory concentration
Description: (§2) Both about 1-10 kDa fractions of poly(trimethylene dipyridine-alt-octane chloride) (TMDP-C8) and about 1.2 kDa poly(trimethylene dipyridine-alt-2,7-dihydroxyoctane chloride) (TMDP-C8(OH)2) have broad, though not identical antimicrobial activity.
as §1

Pseudomonas aeruginosa = assay: MIC broth dilution assay; assay type: cell-based
Description: as §2, §1

Staphylococcus aureus = assay: MIC broth dilution assay; assay type: cell-based; details: S. aureus, read-out: minimum inhibitory concentration
Description: as §2, §1

[2] = system: Stenotrophomonas maltophilia; assay: MIC broth dilution assay; assay type: cell-based; details: S. maltophilia, read-out: minimum inhibitory concentration
Description: as §2, §1

P. aeruginosa = details: within 11 passages, published studies; cited from earlier work
MRSA = details: over 15 passages, published studies; cited from earlier work
[3] = parameters: species or system pigs; details: pig, in vivo
Description: The non-substituted C8-containing compound TMDP-C8 (about 1-10 kDa) was tested at 10 mg/ml for its ability to reduce S. aureus infections introduced into dermal wounds in pigs.

NC[C@H]1O[C@H](O[C@H]2[C@H](O)[C@@H](O[C@H]3O[C@H](CO)[C@@H](O)[C@H](N)[C@H]3O)[C@H](N)C[C@@H]2N)[C@H](N)C[C@@H]1O [Tobramycin, tobramycin]
IC50 ([1]; Homo sapiens, A549, A-549 lung epithelial cells): 5000 µg/mL (≈ 10700 µM)
MIC (Burkholderia cepacia): > 50 µg/mL
minimum inhibitory concentration (Pseudomonas aeruginosa; P. aeruginosa PA01): 0.39 µg/mL (≈ 0.834 µM)
MIC (Pseudomonas aeruginosa; Pseudomonas aeruginosa, P. aeruginosa G38, read-out: minimum inhibitory concentration): 0.39 µg/mL (≈ 0.834 µM)
MIC (Staphylococcus aureus): 0.195 µg/mL (≈ 0.417 µM)
MIC [2]: 25 µg/mL (≈ 53.5 µM)

CCn1cc(C(=O)O)c(=O)c2cc(F)c(N3CCNCC3)cc21 [norfloxacin]
rise of MIC (P. aeruginosa): 10 fold
rise of MIC (MRSA): 85 fold

gentamicin
rise of MIC (P. aeruginosa): 190 fold

poly(trimethylene dipyridine-alt-octane chloride) [TMDP-C8]
effect on wound healing [3]: did not inhibit or retard healing

poly(trimethylene dipyridine-alt-octane) [TMDP-C8 1-3k]
IC50, In vitro Cytotoxicity of Compounds Tested in First Rat Lung Study [1]: 322 µg/mL

poly(trimethylene dipyridine-alt-octane) [TMDP-C8 >1k]
IC50, In vitro Cytotoxicity of Compounds Tested in First Rat Lung Study [1]: 30 µg/mL
